Source: patent US12344595B2, “2-amino-n-phenyl-nicotinamides as NAV1.8 inhibitors” (Merck Sharp & Dohme LLC, priority 2018, dated 2025)

The molecules below were run against human Nav1.8 (Homo sapiens (Human), UniProt Q9Y5Y9) (assay: Nav1.8 Qube automated patch-clamp assay). Details: Nav1.8 Qube Assay; human Nav1.8 channels stably expressed in HEK 293 cells.
Type: cell-based
Protocol: Qube® Assay Experimental Procedure
Compounds were tested on human Nav1.8 and Nav1.5 channels stably expressed in human embryo kidney (HEK) 293 cells. Sodium current measurements on Qube® were conducted as follows: automated 384-well patch-clamp assays on the Qube® platform (Sophion Biosciences) were used to measure the inhibition of sodium flow through human Nav1.8 and Nav1.5 channels. Whole-cell voltage-clamp recordings were performed in QChips® (Sophion Biosciences) at room temperature. Nav1.8 current measurements on Qube® were obtained as follows: Nav1.8 currents were elicited with a 10 second 1 Hertz (Hz) pulse train from a holding potential of −90 millivolts (mV), delivered to the cells once per minute in the control condition (DMSO only) and after compound addition. The 1 hertz pulse train stimulation consisted of ten test pulses to 10 millivolt (mV) for 20 milliseconds (ms), each of which was followed by a 980 millisecond repolarization to −67 millivolts. At the end of the 10 second pulse train stimulation, a 5 second hyperpolarization step to −100 millivolt (mV) was used to recover Nav1.8 from fast inactivation. The peak currents elicited by the 1st and 10th test pulses were used to determine IC50 values for resting inhibition and inactivated state inhibition. Nav1.5 current measurements on Qube® were obtained as follows: Nav1.5 currents were elicited with a 20 second 3 Hertz pulse train in the control condition (DMSO only) and after compound addition. The pulse train consisted of sixty 20 millisecond test pulses to 0 millivolt from a holding potential of −80 millivolt (mV). The average peak currents elicited by the last 3 test pulses were used to determine IC50 values for Nav1.5 inhibition.
The following buffers were used for the Qube® recordings: External buffer for Nav1.8 Qube® recording: 150 NaCl, 2 CaCl2, 5 KCl, 1 Mg Cl2, 10 HEPES, 12 Dextrose; External buffer for Qube® Nav1.5 recording: 120 N-Methyl-D-Glucamine, 40 NaCl, 1 KCl, 2.7 CaCl2, 5 HEPES, 0.5 MgCl2; and Internal buffer for Qube® recording: 120 CsF, 30 CsCl, 10 EGTA, 5 HEPES, 5 NaF, 2 MgCl2.
For all Qube® experiments offline analysis was used to determine percent inhibition as a function of drug concentration. IC50 values were determined by fitting to the Hill equation.

human Nav1.8, sequence (Q9Y5Y9 whole entry): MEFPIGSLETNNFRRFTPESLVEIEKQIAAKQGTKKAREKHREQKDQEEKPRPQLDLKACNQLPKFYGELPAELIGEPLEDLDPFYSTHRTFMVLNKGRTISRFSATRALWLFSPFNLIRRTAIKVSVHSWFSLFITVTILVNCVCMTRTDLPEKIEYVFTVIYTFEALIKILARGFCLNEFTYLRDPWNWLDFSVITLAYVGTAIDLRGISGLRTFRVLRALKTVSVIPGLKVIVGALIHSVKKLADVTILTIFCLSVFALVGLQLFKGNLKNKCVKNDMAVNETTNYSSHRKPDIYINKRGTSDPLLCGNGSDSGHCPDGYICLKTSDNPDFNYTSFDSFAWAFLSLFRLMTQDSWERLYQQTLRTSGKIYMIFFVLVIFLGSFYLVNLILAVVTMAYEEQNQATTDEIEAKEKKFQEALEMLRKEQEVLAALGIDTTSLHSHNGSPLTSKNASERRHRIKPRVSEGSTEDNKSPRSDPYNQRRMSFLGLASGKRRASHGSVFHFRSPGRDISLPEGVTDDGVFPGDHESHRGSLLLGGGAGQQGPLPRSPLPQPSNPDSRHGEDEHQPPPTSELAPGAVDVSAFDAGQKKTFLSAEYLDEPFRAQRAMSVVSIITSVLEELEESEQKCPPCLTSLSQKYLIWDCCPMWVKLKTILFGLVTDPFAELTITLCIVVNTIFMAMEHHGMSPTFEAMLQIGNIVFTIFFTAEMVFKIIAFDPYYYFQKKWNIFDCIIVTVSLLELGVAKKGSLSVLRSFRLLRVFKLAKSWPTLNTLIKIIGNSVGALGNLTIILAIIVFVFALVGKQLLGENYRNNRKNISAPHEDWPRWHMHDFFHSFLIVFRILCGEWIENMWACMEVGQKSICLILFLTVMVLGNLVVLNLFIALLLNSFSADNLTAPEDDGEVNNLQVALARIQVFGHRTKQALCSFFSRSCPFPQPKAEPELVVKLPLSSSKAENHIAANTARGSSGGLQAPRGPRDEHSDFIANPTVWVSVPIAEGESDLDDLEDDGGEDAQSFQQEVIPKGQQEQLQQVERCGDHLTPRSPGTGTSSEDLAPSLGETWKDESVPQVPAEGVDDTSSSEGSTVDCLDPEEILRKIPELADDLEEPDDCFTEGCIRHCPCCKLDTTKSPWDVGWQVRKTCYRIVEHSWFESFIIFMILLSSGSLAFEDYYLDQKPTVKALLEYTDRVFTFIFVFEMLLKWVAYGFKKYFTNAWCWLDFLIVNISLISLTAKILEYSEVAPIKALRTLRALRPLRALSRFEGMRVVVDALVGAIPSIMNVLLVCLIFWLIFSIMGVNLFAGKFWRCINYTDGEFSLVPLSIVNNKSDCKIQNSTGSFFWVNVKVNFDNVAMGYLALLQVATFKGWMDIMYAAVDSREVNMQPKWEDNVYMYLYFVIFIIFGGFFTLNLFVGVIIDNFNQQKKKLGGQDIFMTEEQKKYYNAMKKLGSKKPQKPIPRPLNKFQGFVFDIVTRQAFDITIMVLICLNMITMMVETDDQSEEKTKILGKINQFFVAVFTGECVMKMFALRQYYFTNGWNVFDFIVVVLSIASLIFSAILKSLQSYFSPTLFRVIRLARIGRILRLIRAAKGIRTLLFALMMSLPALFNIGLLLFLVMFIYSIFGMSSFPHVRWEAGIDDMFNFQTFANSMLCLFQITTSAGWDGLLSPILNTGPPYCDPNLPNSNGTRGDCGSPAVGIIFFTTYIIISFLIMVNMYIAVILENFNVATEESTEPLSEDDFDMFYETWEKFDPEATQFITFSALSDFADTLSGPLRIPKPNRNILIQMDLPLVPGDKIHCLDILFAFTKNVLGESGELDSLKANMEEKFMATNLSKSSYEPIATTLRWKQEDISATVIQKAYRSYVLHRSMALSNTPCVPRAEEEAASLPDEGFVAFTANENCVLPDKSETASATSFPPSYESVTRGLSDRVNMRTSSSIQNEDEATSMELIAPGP

IC50 [nM]	Structure (SMILES)
18	NC(=O)c1cccc(NC(=O)c2ccc(Cl)nc2N2CCCC(F)(F)CC2)c1 [Example 14, N-(3-carbamoyl-phenyl)-6-chloro-2-(4,4-difluoroazepan-1-yl)pyridine-3-carboxamide]
244	NS(=O)(=O)c1cccc(NC(=O)c2cc(C(F)(F)F)cnc2N2CCCC(F)(F)C2)c1 [Example 51, 2-(3,3-difluoro-1-piperidyl)-N-(3-sulfamoylphenyl)-5-(trifluoromethyl)-pyridine-3-carboxamide]
1620	COC(=O)C1CCN(c2ncc(C(F)(F)F)cc2C(=O)Nc2cccc(S(N)(=O)=O)c2)CC1 [Example 61, methyl 1-[3-[(3-sulfamoylphenyl)carbamoyl]-5-(trifluoro-methyl)-2-pyridyl]-piperidine-4-carboxylate]
24	NS(=O)(=O)c1cccc(NC(=O)c2cnc(C3CC3)nc2N2CCCC(F)(F)CC2)c1 [Example 180, 2-cyclopropyl-4-(4,4-difluoroazepan-1-yl)-N-(3-sulfamoylphenyl)pyrimidine-5-carboxamide]
70	NS(=O)(=O)c1cccc(NC(=O)c2cc(C(F)(F)F)nnc2N2CCCC(F)(F)CC2)c1 [Example 181, 3-(4,4-difluoroazepan-1-yl)-N-(3-sulfamoylphenyl)-6-(trifluoromethyl)pyridazine-4-carboxamide]
448	NS(=O)(=O)c1cccc(NC(=O)c2cc(C(F)(F)F)cnc2N2CCCOCC2)c1 [Example 56, 2-(1,4-oxazepan-4-yl)-N-(3-sulfamoylphenyl)-5-(trifluoromethyl)-pyridine-3-carboxamide]
2.5	NS(=O)(=O)c1cccc(NC(=O)c2cc(C3CCC3)cnc2N2CCCC(F)(F)CC2)c1 [Example 159, 5-cyclobutyl-2-(4,4-difluoroazepan-1-yl)-N-(3-sulfamoylphenyl)nicotinamide]
131	CS(=O)(=O)c1cccc(NC(=O)c2cc(C(F)(F)F)cnc2N2CCC3(CC2)CC3)c1 [Example 99, 2-(6-azaspiro[2.5]octan-6-yl)-N-(3-methylsulfonylphenyl)-5-(trifluoromethyl)-pyridine-3-carboxamide]
4430	O=C(Nc1cccc(S(=O)(=O)N2CCCC2)c1)c1cc(C(F)(F)F)cnc1N1CCCCCC1 [Example 24, 2-(azepan-1-yl)-N-(3-pyrrolidin-1-yl-sulfonylphenyl)-5-(trifluoromethyl)-pyridine-3-carboxamide]
2210	NS(=O)(=O)c1cccc(NC(=O)c2cc(C(F)(F)F)cnc2N2CCCC(O)CC2)c1 (stereo not shown) [Example 65, 2-(4-hydroxyazepan-1-yl)-N-(3-sulfamoyl-phenyl)-5-(trifluoro-methyl)pyridine-3-carboxamide]
57	NS(=O)(=O)c1cccc(NC(=O)c2cc(C(F)(F)F)cnc2N2CCC3(CC2)CC3)c1 [Example 43, 2-(6-azaspiro[2.5]octan-6-yl)-N-(3-sulfamoylphenyl)-5-(trifluoromethyl)nicotinamide]
17	Cc1ccc(C(=O)Nc2cccc(S(N)(=O)=O)c2)c(N2CCCCCC2)n1 [Example 90, 2-(azepan-1-yl)-6-methyl-N-(3-sulfamoyl-phenyl)pyridine-3-carboxamide]
7.5	NS(=O)(=O)c1cccc(NC(=O)c2cc(OC(F)F)cnc2N2CCCC(F)(F)CC2)c1 [Example 172, 2-(4,4-difluoroazepan-1-yl)-5-(difluoromethoxy)-N-(3-sulfamoylphenyl)nicotinamide]
40	CS(=O)(=O)c1cccc(NC(=O)c2cc(C(F)(F)F)cnc2N2CC3CCC(F)(F)C3C2)c1 (stereo not shown) [Example 96, 2-(4,4-difluoro-1,3,3a,5,6,6a-hexahydrocyclopenta[c]pyrrol-2-yl)-N-(3-methylsulfonylphenyl)-5-(trifluoromethyl)-pyridine-3-carboxamide]
211	NS(=O)(=O)c1c(F)ccc(NC(=O)c2cc(C(F)(F)F)cnc2N2CCC(F)(F)CC2)c1F [Example 28, N-(2,4-difluoro-3-sulfamoylphenyl)-2-(4,4-difluoropiperidin-1-yl)-5-(trifluoromethyl)nicotinamide]
881	NS(=O)(=O)c1cccc(NC(=O)c2cc(C(F)(F)F)cnc2N2CC3CC2CC3(F)F)c1 (single isomer, unassigned) [Example 138, 2-[(1R,4R or 1S,4S)-5,5-difluoro-2-azabicyclo-[2.2.1]heptan-2-yl]-N-(3-sulfamoylphenyl)-5-(trifluoromethyl)-pyridine-3-carboxamide]
4430	Cc1ccc(-c2cnc(N3CCCCC3)c(C(=O)Nc3cccc(S(N)(=O)=O)c3)c2)cc1 [Example 27, 2-(piperidin-1-yl)-N-(3-sulfamoylphenyl)-5-(p-tolyl)nicotinamide]
7	CS(=O)(=O)c1cccc(NC(=O)c2ccc(Cl)nc2N2CCCC(F)(F)CC2)c1 [Example 9, 6-chloro-2-(4,4-difluoroazepan-1-yl)-N-(3-methylsulfonyl-phenyl)pyridine-3-carboxamide]
19	COc1nc(N2CCCCCC2)c(C(=O)Nc2cccc(S(N)(=O)=O)c2)cc1Br [Example 156, 2-(azepan-1-yl)-5-bromo-6-methoxy-N-(3-sulfamoylphenyl)nicotinamide]
30	CS(=O)(=O)c1cccc(NC(=O)c2cc(C(F)(F)C(F)(F)F)cnc2N2CCCCCC2)c1 [Example 166, 2-(azepan-1-yl)-N-(3-methylsulfonylphenyl)-5-(1,1,2,2,2-penta-fluoroethyl)pyridine-3-carboxamide]
1790	NS(=O)(=O)c1cccc(NC(=O)c2cc(C3CCCC3)cnc2N2CCCCC2)c1 [Example 154, 5-cyclopentyl-2-(piperidin-1-yl)-N-(3-sulfamoylphenyl)-nicotinamide]
31	COc1ccc(C(=O)Nc2cccc(S(C)(=O)=O)c2)c(N2CCCC(F)(F)CC2)n1 [Example 11, 2-(4,4-difluoroazepan-1-yl)-6-methoxy-N-(3-methylsulfonylphenyl) pyridine-3-carboxamide]
112	Cc1cnc(N2CCCCCC2)c(C(=O)Nc2cccc(S(N)(=O)=O)c2)c1 [Example 23, 2-(azepan-1-yl)-5-methyl-N-(3-sulfamoyl-phenyl)nicotinamide]
16	Cc1ccc(C(=O)Nc2cccc(C(N)=O)c2)c(N2CCCC(F)(F)CC2)n1 [Example 75, N-(3-carbamoylphenyl)-2-(4,4-difluoroazepan-1-yl)-6-methylnicotinamide]
248	NS(=O)(=O)c1cccc(NC(=O)c2ccc(OC(F)(F)F)nc2N2CCCCC2)c1 [Example 84, 2-(piperidin-1-yl)-N-(3-sulfamoylphenyl)-6-(trifluoromethoxy)nicotinamide]
110	NS(=O)(=O)c1cccc(NC(=O)c2cc(C(F)(F)F)cnc2N2CCCC3(C2)CC3(F)F)c1 (single isomer, unassigned) [Example 127, 2-[(3R or 3S)-2,2-difluoro-5-azaspiro[2.5]-octan-5-yl]-N-(3-sulfamoylphenyl)-5-(trifluoromethyl)-pyridine-3-carboxamide]
87	NS(=O)(=O)c1cccc(NC(=O)c2cc(C(F)(F)F)cnc2N2CC3CC(F)(F)C3C2)c1 (single isomer, unassigned) [Example 136, 2-[(1R,5S or 1S,5R)-6,6-difluoro-3-azabicyclo[3.2.0]heptan-3-yl]-N-(3-sulfamoyl-phenyl)-5-(trifluoromethyl)-pyridine-3-carboxamide]
59	NS(=O)(=O)c1cccc(NC(=O)c2ccc(F)nc2N2CCCCCC2)c1 [Example 93, 2-(azepan-1-yl)-6-fluoro-N-(3-sulfamoyl-phenyl)pyridine-3-carboxamide]
113	NS(=O)(=O)c1cccc(NC(=O)c2cc(C(F)(F)F)cnc2N2CC3CCC3(C(F)(F)F)C2)c1 (single isomer, unassigned) [Example 131, N-(3-sulfamoylphenyl)-5-(trifluoromethyl)-2-[(1S,5S or 1R,5R)-1-(trifluoromethyl)-3-azabicyclo[3.2.0]heptan-3-yl]pyridine-3-carboxamide]

Structure (SMILES)	IC50 [nM]
C[Si](C)(C)c1cc(C(=O)Nc2cccc(S(N)(=O)=O)c2)c(N2CCCCCC2)nc1OC(F)(F)F [Example 85, 2-(azepan-1-yl)-N-(3-sulfamoylphenyl)-6-(trifluoromethoxy)-5-(trimethylsilyl)nicotinamide]	1220
NS(=O)(=O)c1cccc(NC(=O)c2cc(C(F)(F)F)cnc2N2C[C@H]3C[C@@H](C2)C3(F)F)c1 [Example 132, 2-[(1R,5S)-6,6-difluoro-3-azabicyclo[3.1.1]-heptan-3-yl]-N-(3-sulfamoylphenyl)-5-(trifluoromethyl)-pyridine-3-carboxamide]	170
